Data taken from patent US9999619B2, “Piperidin-4-yl azetidine derivatives as JAK1 inhibitors” (Incyte Corporation, priority 2010, dated 2018).

Legend:
Format in all cases: biochemical
[1] = molecular target: human JAK1 (a.a. 837-1142); assay: In vitro JAK kinase assay (HTRF, phosphorylation of a biotinylated peptide), JAK1; details: ratio of JAK2 IC50 to JAK1 IC50, measured at 1 mM ATP
Procedure, shortened: (§1)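 Phosphorylation of a biotinylated peptide by purified His-tagged JAK catalytic domains (insect-cell baculovirus expression) ran 1 hr at room temperature. After stopping with EDTA, Eu-Py20 and SA-APC were bound for 40 minutes and HTRF measured.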

[2] = molecular target: human JAK1 (a.a. 837-1142) (Homo sapiens, UniProt P23458); assay: as above; details: measured at 1 mM ATP
Procedure, shortened: as §1

Jak2 (a.a. 828-1132) = Jak2 (a.a. 828-1132) (Homo sapiens (Human), UniProt O60674); assay: In vitro JAK kinase assay (HTRF, phosphorylation of a biotinylated peptide), JAK2; details: measured at 1 mM ATP
Procedure, shortened: as §1

Chain of Jak2 (a.a. 828-1132) (O60674 828-1132): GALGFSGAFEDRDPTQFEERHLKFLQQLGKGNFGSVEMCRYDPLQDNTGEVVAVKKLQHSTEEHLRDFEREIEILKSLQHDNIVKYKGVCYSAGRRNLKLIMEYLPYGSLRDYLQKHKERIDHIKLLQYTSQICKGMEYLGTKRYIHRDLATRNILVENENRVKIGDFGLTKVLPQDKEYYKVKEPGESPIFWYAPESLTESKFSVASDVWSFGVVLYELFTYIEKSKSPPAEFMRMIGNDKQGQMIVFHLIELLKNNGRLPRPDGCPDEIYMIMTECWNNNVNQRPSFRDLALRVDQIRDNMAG

Row | Compound | IC50 Ratio JAK2/JAK1 [1] | IC50 [2] [µM] | IC50 (Jak2 (a.a. 828-1132)) [µM]
1 | N#CCC1(n2cc(-c3ccnc4[nH]ccc34)cn2)CN(C2CCN(C(=O)Nc3ccc(C#N)cc3C(F)(F)F)CC2)C1 [Example 311, 4-{3-(cyanomethyl)-3-[4-(1H-pyrrolo[2,3-b]pyridin-4-yl)-1H-pyrazol-1-yl]azetidin-1-yl}-N-[4-cyano-2-(trifluoromethyl)phenyl]piperidine-1-carboxamide] | 11.1 | 0.005 to 0.02 | > 0.1
2 | N#CCC1(n2cc(-c3ncnc4[nH]ccc34)cn2)CN(C2CCN(C(=O)c3ccc(C(F)(F)F)cc3F)CC2)C1 [Example 82, {1-{1-[2-fluoro-4-(trifluoromethyl)benzoyl]piperidin-4-yl}-3-[4-(7H-pyrrolo[2,3-d]pyrimidin-4-yl)-1H-pyrazol-1-yl]azetidin-3-yl}acetonitrile] | 5.3 | ≤ 0.005 | ≤ 0.01
3 | COc1cc(F)cc(C(=O)N2CCC(N3CC(CC#N)(n4cc(-c5ncnc6[nH]ccc56)cn4)C3)CC2)c1 [Example 36, {1-[1-(3-fluoro-5-methoxybenzoyl)piperidin-4-yl]-3-[4-(7H-pyrrolo[2,3-d]pyrimidin-4-yl)-1H-pyrazol-1-yl]azetidin-3-yl}acetonitrile] | 2.3 | ≤ 0.005 | ≤ 0.01
4 | CN(C)Cc1cc(C(=O)N2CCC(N3CC(CC#N)(n4cc(-c5ncnc6[nH]ccc56)cn4)C3)CC2)cc(C(F)F)c1 [Example 375, {1-(1-{3-(difluoromethyl)-5-[(dimethylamino)methyl]benzoyl}piperidin-4-yl)-3-[4-(7H-pyrrolo[2,3-d]pyrimidin-4-yl)-1H-pyrazol-1-yl]azetidin-3-yl}acetonitrile] | 12.7 | ≤ 0.005 | 0.01 to 0.05
5 | N#CCC1(n2ccc(-c3ncnc4[nH]ccc34)c2)CN(C2CCN(C(=O)c3c(F)ccc(F)c3F)CC2)C1 [Example 270, {3-[3-(7H-pyrrolo[2,3-d]pyrimidin-4-yl)-1H-pyrrol-1-yl]-1-[1-(2,3,6-trifluorobenzoyl)piperidin-4-yl]azetidin-3-yl}acetonitrile] | 6.1 | ≤ 0.005 | ≤ 0.01
6 | CN(C)c1ccc(C(=O)N2CCC(N3CC(CC#N)(n4cc(-c5ncnc6[nH]ccc56)cn4)C3)CC2)cc1C#N [Example 59, 5-[(4-{3-(cyanomethyl)-3-[4-(7H-pyrrolo[2,3-d]pyrimidin-4-yl)-1H-pyrazol-1-yl]azetidin-1-yl}piperidin-1yl)carbonyl]-2-(dimethylamino)benzonitrile] | 4.6 | ≤ 0.005 | ≤ 0.01
7 | Cc1ccc(C(=O)N2CCC(N3CC(CC#N)(n4cc(-c5ncnc6[nH]ccc56)cn4)C3)CC2)s1 [Example 80, {1-{1-[(5-methyl-2-thienyl)carbonyl]piperidin-4-yl}-3-[4-(7H-pyrrolo[2,3-d]pyrimidin-4-yl)-1H-pyrazol-1-yl]azetidin-3-yl}acetonitrile] | 4.1 | ≤ 0.005 | ≤ 0.01
8 | N#CCC1(n2cc(-c3ncnc4[nH]ccc34)cn2)CN(C2CCN(C(=O)Nc3ccc(C(F)(F)F)cc3)CC2)C1 [Example 167, 4-{3-(cyanomethyl)-3-[4-(7H-pyrrolo[2,3-d]pyrimidin-4-yl)-1H-pyrazol-1-yl]azetidin-1-yl}-N-[4-(trifluoromethyl)phenyl]piperidine-1-carboxamide] | 2.0 | ≤ 0.005 | ≤ 0.01
9 | N#CCC1(n2cc(-c3ncnc4[nH]ccc34)cn2)CN(C2CCN(C(=O)C3CCc4ccccc4C3)CC2)C1 (stereo not drawn) [Example 97, {3-[4-(7H-pyrrolo[2,3-d]pyrimidin-4-yl)-1H-pyrazol-1-yl]-1-[1-(1,2,3,4-tetrahydronaphthalen-2-ylcarbonyl)piperidin-4-yl]azetidin-3-yl}acetonitrile] | 2.2 | 0.005 to 0.02 | 0.01 to 0.05
10 | N#CCC1(n2cc(-c3ncnc4[nH]ccc34)cn2)CN(C2CCN(C(=O)c3sccc3Cl)CC2)C1 [Example 76, {1-{1-[(3-chloro-2-thienyl)carbonyl]piperidin-4-yl}-3-[4-(7H-pyrrolo[2,3-d]pyrimidin-4-yl)-1H-pyrazol-1-yl]azetidin-3-yl}acetonitrile] | 5.5 | ≤ 0.005 | ≤ 0.01
11 | N#CCC1(n2cc(-c3ncnc4[nH]ccc34)cn2)CN(C2CCN(C(=O)c3ccc(-c4cccc5ncccc45)c(F)c3)CC2)C1 [Example 129, {1-[1-(3-fluoro-4-quinolin-5-ylbenzoyl)piperidin-4-yl]-3-[4-(7H-pyrrolo[2,3-d]pyrimidin-4-yl)-1H-pyrazol-1-yl]azetidin-3-yl}acetonitrile] | 7.9 | ≤ 0.005 | ≤ 0.01
12 | N#CCC1(n2cc(-c3ncnc4[nH]ccc34)cn2)CN(C2CCN(C(=O)C3CCCC3)CC2)C1 [Example 101, {1-[1-(cyclopentylcarbonyl)piperidin-4-yl]-3-[4-(7H-pyrrolo[2,3-d]pyrimidin-4-yl)-1H-pyrazol-1-yl]azetidin-3-yl}acetonitrile] | 8.3 | 0.005 to 0.02 | > 0.1
13 | COc1c(C(=O)N2CCC(N3CC(CC#N)(n4cc(-c5ncnc6[nH]ccc56)cn4)C3)CC2)csc1Cl [Example 74, {1-{1-[(5-chloro-4-methoxy-3-thienyl)carbonyl]piperidin-4-yl}-3-[4-(7H-pyrrolo[2,3-d]pyrimidin-4-yl)-1H-pyrazol-1-yl]azetidin-3-yl}acetonitrile] | 3.8 | ≤ 0.005 | 0.01 to 0.05
14 | N#CCC1(n2cc(-c3ncnc4[nH]ccc34)cn2)CN(C2CCN(C(=O)c3c(F)cc(C#N)cc3F)CC2)C1 [Example 83, 4-[(4-{3-(cyanomethyl)-3-[4-(7H-pyrrolo[2,3-d]pyrimidin-4-yl)-1H-pyrazol-1-yl]azetidin-1-yl}piperidin-1-yl)carbonyl]-3,5-difluorobenzonitrile] | 5.8 | ≤ 0.005 | 0.01 to 0.05
15 | CC(C)NCc1cc(C(=O)N2CCC(N3CC(CC#N)(n4cc(-c5ncnc6[nH]ccc56)cn4)C3)CC2)nc(C(F)(F)F)n1 [Example 382, {1-(1-{[6-[(isopropylamino)methyl]-2-(trifluoromethyl)pyrimidin-4-yl]carbonyl}piperidin-4-yl)-3-[4-(7H-pyrrolo[2,3-d]pyrimidin-4-yl)-1H-pyrazol-1-yl]azetidin-3-yl}acetonitrile] | 26.7 | ≤ 0.005 | 0.01 to 0.05
16 | N#CCC1(n2cc(-c3ncnc4[nH]ccc34)cn2)CN(C2CCN(C(=O)c3ccc(Cl)s3)CC2)C1 [Example 77, {1-{1-[(5-chloro-2-thienyl)carbonyl]piperidin-4-yl}-3-[4-(7H-pyrrolo[2,3-d]pyrimidin-4-yl)-1H-pyrazol-1-yl]azetidin-3-yl}acetonitrile] | 5.5 | ≤ 0.005 | ≤ 0.01
17 | N#CCC1(n2cc(-c3ncnc4[nH]ccc34)cn2)CN(C2CCN(C(=O)Nc3ccc(F)cc3F)CC2)C1 [Example 171, 4-{3-(cyanomethyl)-3-[4-(7H-pyrrolo[2,3-d]pyrimidin-4-yl)-1H-pyrazol-1-yl]azetidin-1-yl}-N-(2,4-difluorophenyl)piperidine-1-carboxamide] | 7.5 | ≤ 0.005 | 0.01 to 0.05
18 | N#CCC1(n2cc(-c3ncnc4[nH]ccc34)cn2)CN(C2CCN(C(=O)c3cc(F)c(F)cc3F)CC2)C1 [Example 48, {3-[4-(7H-pyrrolo[2,3-d]pyrimidin-4-yl)-1H-pyrazol-1-yl]-1-[1-(2,4,5-trifluorobenzoyl)piperidin-4-yl]azetidin-3-yl}acetonitrile] | 6.5 | ≤ 0.005 | 0.01 to 0.05
19 | N#CCC1(n2ccc(-c3ncnc4[nH]ccc34)c2)CN(C2CCN(C(=O)Nc3ncccc3C(F)(F)F)CC2)C1 [Example 290, 4-{3-(cyanomethyl)-3-[3-(7H-pyrrolo[2,3-d]pyrimidin-4-yl)-1H-pyrrol-1-yl]azetidin-1-yl}-N-[3-(trifluoromethyl)pyridin-2-yl]piperidine-1-carboxamide] | 3.9 | 0.02 to 0.03 | > 0.1
20 | N#CCC1(n2cc(-c3c(F)cnc4[nH]ccc34)cn2)CN(C2CCN(C(=O)c3ccc(F)cn3)CC2)C1 [Example 319, {1-{1-[(5-fluoropyridin-2-yl)carbonyl]piperidin-4-yl}-3-[4-(5-fluoro-1H-pyrrolo[2,3-b]pyridin-4-yl)-1H-pyrazol-1-yl]azetidin-3-yl}acetonitrile] | 4.0 | ≤ 0.005 | 0.01 to 0.05
21 | N#CCC1(n2cc(-c3ncnc4[nH]ccc34)cn2)CN(C2CCN(C(=O)c3ccc(-c4ccc5nccn5c4)c(F)c3)CC2)C1 [Example 135, {1-[1-(3-fluoro-4-imidazo[1,2-a]pyridin-6-ylbenzoyl)piperidin-4-yl]-3-[4-(7H-pyrrolo[2,3-d]pyrimidin-4-yl)-1H-pyrazol-1-yl]azetidin-3-yl}acetonitrile] | 7.1 | ≤ 0.005 | 0.01 to 0.05
22 | N#CCC1(n2cc(-c3ncnc4[nH]ccc34)cn2)CN(C2CC3CCC(C2)N3C(=O)c2cc(F)cc(C#N)c2)C1 (stereo not drawn) [Example 138, 3-[(3-{3-(Cyanomethyl)-3-[4-(7H-pyrrolo[2,3-d]pyrimidin-4-yl)-1H-pyrazol-1-yl]azetidin-1-yl}-8-azabicyclo[3.2.1]oct-8-yl)carbonyl]-5-fluorobenzonitrile] | 13.9 | ≤ 0.005 | ≤ 0.01
23 | COc1cc(F)ccc1C(=O)N1CCC(N2CC(CC#N)(n3cc(-c4ncnc5[nH]ccc45)cn3)C2)CC1 [Example 40, {1-[1-(4-fluoro-2-methoxybenzoyl)piperidin-4-yl]-3-[4-(7H-pyrrolo[2,3-d]pyrimidin-4-yl)-1H-pyrazol-1-yl]azetidin-3-yl}acetonitrile] | 4.8 | ≤ 0.005 | ≤ 0.01
